According to ChEMBL document CHEMBL1156379, “Furanosesquiterpenoids of Commiphora myrrha” (J Nat Prod, 2001):

System: MCF7
Test: Cytotoxicity against human MCF7 cells after 15 days by clonogenic assay; call rule not given here
Format: functional, cell-based

Row | SMILES | IC50 (mcf7) | IC50 (Homo sapiens, MCF7, 360 h, read-out: IC50) [µM]
1 | C=C1/C=C/[C@H](OC)[C@@H](C)CC(=O)c2c(C)coc2C1 (relative stereo) | Not Active | 
2 | C=C1Cc2occ(C)c2C(=O)C[C@H](C)C[C@@H]2O[C@@H]12 (relative stereo) |  | 40
3 | CO[C@H]1/C=C(\C)Cc2occ(C)c2C(=O)C[C@H](C)C1 (relative stereo) | Not Active | 
4 | CO[C@H]1/C=C(/C)Cc2occ(C)c2C(=O)[C@@H](OC(C)=O)[C@H](C)C1 (relative stereo) | Not Active | 
